# Publication PMC10214751, “Poaceae‐specific β‐1,3;1,4‐D‐glucans link jasmonate signalling to OsLecRK1‐mediated defence response during rice‐brown planthopper interactions” (Plant Biotechnology Journal, 2023)
# Target: T1, OsLecRK1 (MBP-OsLecRK1-His) (Oryza sativa, UniProt Q7FAZ3)
# T1 construct: gene LECRK1; recombinant MBP-OsLecRK1-His fusion, purified; MBP and His tags kept; RED-NHS labelled
# T1 sequence (Q7FAZ3 20-813 limits assumed): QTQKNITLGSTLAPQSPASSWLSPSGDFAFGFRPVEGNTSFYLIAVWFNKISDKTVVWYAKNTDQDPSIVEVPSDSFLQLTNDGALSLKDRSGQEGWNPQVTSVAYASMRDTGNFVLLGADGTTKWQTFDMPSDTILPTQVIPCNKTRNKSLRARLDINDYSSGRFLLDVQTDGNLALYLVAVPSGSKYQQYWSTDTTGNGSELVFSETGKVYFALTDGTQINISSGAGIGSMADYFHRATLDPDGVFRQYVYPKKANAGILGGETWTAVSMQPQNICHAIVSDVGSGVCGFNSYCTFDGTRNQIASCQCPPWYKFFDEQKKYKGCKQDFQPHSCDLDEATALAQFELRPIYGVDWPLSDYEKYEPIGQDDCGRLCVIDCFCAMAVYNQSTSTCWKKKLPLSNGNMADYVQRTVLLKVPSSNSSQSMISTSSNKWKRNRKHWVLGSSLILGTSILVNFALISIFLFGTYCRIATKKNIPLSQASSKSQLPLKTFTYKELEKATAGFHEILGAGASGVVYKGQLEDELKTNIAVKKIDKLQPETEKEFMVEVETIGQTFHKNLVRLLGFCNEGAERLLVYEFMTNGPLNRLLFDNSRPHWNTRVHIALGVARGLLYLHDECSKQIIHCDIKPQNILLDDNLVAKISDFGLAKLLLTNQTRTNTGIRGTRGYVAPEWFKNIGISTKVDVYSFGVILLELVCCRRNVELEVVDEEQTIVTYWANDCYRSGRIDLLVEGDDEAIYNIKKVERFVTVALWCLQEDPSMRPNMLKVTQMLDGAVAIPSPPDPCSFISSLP
# Experiment: microscale thermophoresis, RED-NHS labelled protein
# Format: binding
# Conditions: labelled protein in NHS buffer pH 8.2 (130 mM NaHCO3, 50 mM NaCl); ligand 1.5 nM to 50 μM
# From the text: microscale thermophoresis, RED-NHS labelled protein on OsLecRK1 (MBP-OsLecRK1-His) | MBP‐OsLecRK1‐His recombinant protein bound BGTRIA, BGTRIB, BGTETB, and BGTETC with high affinities
row,Kd,SMILES
1,600 nM,"OC[C@H]1O[C@@H](O[C@H]2[C@H](O)[C@@H](O)[C@H](O[C@H]3[C@H](O)[C@@H](CO)OC(O)[C@@H]3O)O[C@@H]2CO)[C@H](O)[C@@H](O)[C@@H]1O (stereo partly drawn) [BGTRIB, 3^1‐β‐D‐cellobiosyl‐glucose]"
2,340 nM,"OC[C@H]1O[C@@H](O[C@@H]2[C@@H](O)[C@H](O[C@H]3[C@H](O)[C@@H](O)C(O)O[C@@H]3CO)O[C@H](CO)[C@H]2O)[C@H](O)[C@@H](O)[C@@H]1O (stereo partly drawn) [BGTRIA, 3^2‐β‐D‐glucosyl‐cellobiose]"
